ChEMBL document CHEMBL3272321, “Preliminary biological studies of certain amino acid analogues” (J Med Chem, 1976)
Calls of active or inactive are those of the source. No cut-off for these calls is given here.

Legend:
Mus musculus [1] = test: Toxicity in albino mouse at 400 mg/kg, ip qd for 7 days measured after 7 days; type: organism-based; set-up: dose 400 mg/kg, route intraperitoneal; details: in vivo, 168 h
[2] = Retardation factor, Rf of the compound by paper chromatographic analysis; type: physicochemical
Mus musculus [3] = organism: Mus musculus; test: Toxicity in albino mouse assessed as tissue damage; type: organism-based; details: in vivo
Escherichia coli [4] = test: Bacteriostatic activity against Escherichia coli 9723 at 5 to 15 X 10^-5 mole/10 ml after 5 to 25 hrs by spectrophotometric analysis; type: functional, organism-based
Escherichia coli [5] = test: Bacteriostatic activity against Escherichia coli 9723 at 5 to 15 X 10^-5 mole/10 ml after 5 to 25 hrs by spectrophotometric analysis in presence of D-methionine; type: functional, organism-based
Escherichia coli [6] = test: Bacteriostatic activity against Escherichia coli 9723 at 5 to 15 X 10^-5 mole/10 ml after 5 to 25 hrs by spectrophotometric analysis in presence of L-methionine; type: functional, organism-based
[7] = Drug excretion in albino mouse feces at 2 mg, sc after 24 hrs; type: ADME, organism-based; details: faeces, read-out: Drug excretion
[8] = Drug excretion in albino mouse urine at 2 mg, sc after 24 hrs; type: ADME, organism-based; details: read-out: Drug excretion
Escherichia coli [9] = test: Bacteriostatic activity against Escherichia coli 9723 after 8 hrs by spectrophotometric analysis; type: functional
Escherichia coli [10] = test: Bacteriostatic activity against Escherichia coli 9723 after 19 hrs by spectrophotometric analysis; type: functional
Escherichia coli [11] = test: Bacteriostatic activity against Escherichia coli 9723 at 5 to 15 X 10^-5 mole/10 ml after 5 to 25 hrs by spectrophotometric analysis in presence of L-phenylalanine; type: functional, organism-based

Rf [2]	dose excreted at 24 h [7] [%]	dose excreted at 24 h [8] [%]	GI90 (Escherichia coli [9]) [M]	GI90 (Escherichia coli [10]) [M]	Structure (SMILES)	Activity (Mus musculus [1])	Activity (Mus musculus [3])	Activity (Escherichia coli [4])	Activity (Escherichia coli [5])	Activity (Escherichia coli [6])	Activity (Escherichia coli [11])
0.64	–	–	–	–	NC(C(=O)O)(C1CC1)C1CC1	Non-toxic	Non-toxic	–	–	–	–
0.71	2.2	97.6	0.0013	0.01	C=CCCC(C)(N)C(=O)O (stereo not given)	Non-toxic	Non-toxic	Active	inactive	inactive	–
0.77	2.1	97.9	0.0025	0.005	CC[C@](N)(Cc1ccccc1)C(=O)O	Non-toxic	Non-toxic	Active	–	–	inactive
0.56	–	–	–	–	CC(N)(C(=O)O)C1CC1 (stereo not given)	Non-toxic	Non-toxic	–	–	–	–
